According to ChEMBL document CHEMBL1201862, “PubChem BioAssay data set” (2004):
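Step 1: Grow cells in 96-well plates. Step 2: Expose to compound for 48 hours at 5 concentrations. Step 3: Interpolate endpoints linearly; if unreached, use highest concentration. GI50 marks 50% less growth.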 Active and inactive are the calls of the source. No stated cut-off is given here; in the data, active = GI50 up to about 1.1 µM and inactive = higher. Residues, ends and D or L forms follow the SMILES beside them. Peptide text beside a SMILES is read from it. * marks the point of attachment. *: point of attachment. Cbz = O=C(OCc1ccccc1)*; Boc = CC(C)(C)OC(=O)*; OBn = c1ccc(CO*)cc1

What was measured:
Assay in all cases: NCI-60 cell line screen, 48 h
A498 = test system: A498
CCRF-CEM = test system: CCRF-CEM
COLO 205 = test system: COLO 205
DU-145 = test system: DU-145
EKVX = test system: EKVX
MCF7 = test system: MCF7
MDA-MB-435 = test system: MDA-MB-435
NCI-H23 = test system: NCI-H23
NCI/ADR-RES = test system: NCI/ADR-RES
OVCAR-4 = test system: OVCAR-4
OVCAR-5 = test system: OVCAR-5
OVCAR-8 = test system: OVCAR-8
RPMI-8226 = test system: RPMI-8226
SK-MEL-28 = test system: SK-MEL-28
SNB-75 = test system: SNB-75
SW-620 = test system: SW-620
TK-10 = test system: TK-10
UACC-257 = test system: UACC-257
SF-539 = test system: SF-539

Measured: GI50

CC1(C)OC(=S)N(c2ccccc2)C12C=Cc1ccccc1O2 (stereo not drawn)
inactive: A498 > 100 µM | CCRF-CEM 27.8 µM | COLO 205 63.4 µM | DU-145 > 100 µM | EKVX 53.5 µM | MCF7 61.1 µM | MDA-MB-435 36.4 µM | NCI-H23 41 µM | NCI/ADR-RES 53.5 µM | OVCAR-4 33.4 µM | OVCAR-5 > 100 µM | OVCAR-8 > 100 µM | RPMI-8226 24.8 µM | SK-MEL-28 > 100 µM | SNB-75 49.2 µM | SW-620 72.3 µM | TK-10 > 100 µM | UACC-257 42.1 µM

O=C1OC(CS(=O)(=O)c2ccccc2)CC1O (stereo not drawn)
inactive: A498 > 100 µM | CCRF-CEM > 100 µM | COLO 205 > 100 µM | DU-145 > 100 µM | EKVX > 100 µM | MCF7 > 100 µM | MDA-MB-435 > 100 µM | NCI-H23 > 100 µM | NCI/ADR-RES > 100 µM | OVCAR-4 > 100 µM | OVCAR-5 > 100 µM | OVCAR-8 > 100 µM | RPMI-8226 > 100 µM | SF-539 > 100 µM | SK-MEL-28 > 100 µM | SW-620 > 100 µM | TK-10 > 100 µM | UACC-257 > 100 µM

COc1ccc2c(c1)nc1n2C(c2c(Cl)cccc2Cl)SC1 (stereo not drawn)
inactive: A498 46.5 µM | COLO 205 4.63 µM | DU-145 22.3 µM | EKVX > 64.1 µM | MCF7 5.68 µM | MDA-MB-435 2.59 µM | NCI-H23 38.4 µM | NCI/ADR-RES 4.12 µM | OVCAR-4 > 46.6 µM | OVCAR-5 > 67.8 µM | OVCAR-8 > 61 µM | RPMI-8226 > 23.5 µM | SF-539 9.1 µM | SK-MEL-28 25.9 µM | SNB-75 > 28.2 µM | TK-10 > 58.6 µM | UACC-257 37.8 µM

Cc1sc2c(c1C)/C(=N\O)c1cccn1-2
inactive: A498 24.2 µM | CCRF-CEM 3.6 µM | COLO 205 > 100 µM | DU-145 61 µM | EKVX 22.2 µM | MCF7 39.1 µM | MDA-MB-435 54 µM | NCI/ADR-RES 53.3 µM | OVCAR-4 44.9 µM | OVCAR-5 > 100 µM | OVCAR-8 45.8 µM | RPMI-8226 37.8 µM | SK-MEL-28 93.3 µM | SNB-75 16.2 µM | SW-620 58.6 µM | TK-10 43.6 µM | UACC-257 93.5 µM

CC(C)(C)OC(=O)N(CCCN)CCCCN
inactive: A498 > 100 µM | CCRF-CEM > 100 µM | COLO 205 > 100 µM | DU-145 > 100 µM | EKVX > 100 µM | MCF7 > 100 µM | MDA-MB-435 > 100 µM | NCI-H23 > 100 µM | NCI/ADR-RES > 100 µM | OVCAR-4 > 100 µM | OVCAR-5 > 100 µM | OVCAR-8 > 100 µM | RPMI-8226 > 100 µM | SF-539 > 100 µM | SK-MEL-28 > 100 µM | SW-620 > 100 µM | TK-10 > 100 µM | UACC-257 > 100 µM

CC(C)CC(NC(=O)OC(C)(C)C)C(=O)NC(CC(=O)OCc1ccccc1)C(N)=O (stereo not drawn) (Boc-Leu-Asp(OBn)-NH2; configuration not given here)
inactive: A498 > 100 µM | COLO 205 > 100 µM | DU-145 > 100 µM | EKVX > 100 µM | MCF7 > 100 µM | MDA-MB-435 > 100 µM | NCI-H23 > 100 µM | NCI/ADR-RES > 100 µM | OVCAR-4 > 100 µM | OVCAR-5 > 100 µM | OVCAR-8 > 100 µM | SF-539 > 100 µM | SK-MEL-28 > 100 µM | SNB-75 17.3 µM | SW-620 > 100 µM | TK-10 > 100 µM | UACC-257 > 100 µM

CCOC(=O)CCC(NC(=O)OCc1ccccc1)C(=O)NC(CCC(=O)OCC)C(=O)OCC (stereo not drawn) (Cbz-Glu(OEt)-Glu(OEt)-OEt; configuration not given here)
inactive: A498 > 100 µM | CCRF-CEM > 100 µM | COLO 205 > 100 µM | DU-145 > 100 µM | EKVX > 100 µM | MCF7 > 100 µM | MDA-MB-435 > 100 µM | NCI-H23 > 100 µM | NCI/ADR-RES > 100 µM | OVCAR-4 > 100 µM | OVCAR-5 > 100 µM | OVCAR-8 > 100 µM | RPMI-8226 > 100 µM | SF-539 > 100 µM | SK-MEL-28 > 100 µM | SNB-75 > 100 µM | SW-620 > 100 µM | UACC-257 > 100 µM
